Read-outs that look alike come from different tables or passages of the source.
Columns and labels:
[1] = tested on: SW620 tumor organoids; experiment: Synergy studies with SN38 (LOEWE synergy scores); format: cell-based, human; set-up: key to LOEWE Synergy Score: % response beyond expectation; <-10 antagonism, -10–10 additive, >10 synergy; details: for LOEWE Synergy Score: compound at its IC50 (6: 5 μM; 6.3, 6.11: 3 μM)
Procedure: (§1) Cell based cytotoxicity dose response and combination studies. […] Plates were then incubated for 3 days before treatment.
(e.g., synergy score 20 corresponds to 20% of response beyond expectation). According to our experience, the synergy scores near 0 gives limited confidence on synergy or antagonism.
When the synergy score is: • Less than −10: the interaction between two drugs is likely to be antagonism; • From −10 to 10: the interaction between two drugs is likely to be additivity; • Larger than 10: the interaction between two drugs is likely to be synergy.

[2] = tested on: HCT116 tumor organoids; experiment: Tumor organoid cytotoxicity (CellTiter-Glo 3D); format: cell-based, human; details: Homo sapiens
Procedure: as §1
Cell Line Tumor Organoid Culture.
Tumor Organoid Cytotoxicity.

[3] = tested on: SW620 tumor xenografts
Procedure: In vivo studies. […] Body weight and tumor volumes were monitored 2×/week. […] In addition, irinotecan was administered i.p. at 50 mg/kg.

[4] = Mouse liver microsome stability; details: CD-1, mouse, liver microsomes; for half-life: female, initial study
[5] = tested on: SW620 tumor organoids; experiment: Western blot of treated SW620 tumor organoids; format: cell-based, human
Procedure: CRC cell lines and homogenized tumor tissue samples from mice were resuspended in RIPA lysis buffer (20 mM Tris-HCl (pH 7.5), 150 mM NaCl, 1 mM Na2EDTA, 1 mM EGTA, 1% NP-40, 1% sodium deoxycholate, 2.5 mM sodium pyrophosphate, 1 mM b-glycerophosphate, 1 mM Na3VO4, 0.1 mM PMSF. Protein concentration was determined using the Pierce™ BCA protein assay kit (ThermoFisher, Waltham, Mass.). Forty micrograms of sample were run on 10% Bis-Tris gels. Following electrophoresis, the proteins were transferred to a nitrocellulose membrane. The membranes were blocked at room temperature with 5% non-fat milk in TBS/Tween® 20 (TBST contains 20 mM Tris, 150 mM NaCl, and 0.1% Tween®20 (Croda International PLC, Snaith, UK) for 1 hour at room temperature. Membranes were washed three times with TBST. Blots were incubated with the appropriate primary antibody in 5% nonfat milk in TBST overnight at 4° C. Membranes were washed three times with TBST and then incubated with appropriate secondary antibody for one hour. Membranes were washed again with TBST three times. Blots were exposed using SuperSignal™West Pico PLUS Chemiluminescent Substrate (ThermoFisher, Waltham, Mass.) and imaged using a ChemiDoc imaging system (Bio-Rad, Hercules, Calif.). [See: Abbott et al., 2020 and its Supplementary Information for Western Blots]

[6] = tested on: vimentin promoter activity; experiment: VimPro-GFP reporter 3D high-content imaging in tumor organoids; format: cell-based, human; details: 72 h
Procedure: After validating hits 5-7 against CHD1L mediated TCF transcription, the ability of these compounds to reverse EMT and other malignant properties in CRC were evaluated. E-cadherin and vimentin are putative biomarkers for the epithelial and mesenchymal phenotypes, respectively. [McDonald et al., 2015] Loss of E-cadherin and gain of vimentin are also clinical biomarkers of poor prognosis. [Yun et al., 2014; Richardson et al., 2012; Dhanasekaran et al., 2001; Kashiwagi et al., 2010; Toiyama et al., 2013] Accordingly, lentiviral promoter driven reporters for E-cadherin (pCDH1-EcadPro-RFP) and vimentin (pCDH1-VimPro-GFP) were developed, which faithfully report E-cadherin and vimentin protein expression, respectively. [Zhou et al., 2016; Abraham et al., 2019] SW620 cells transduced with either EcadPro-RFP or VimPro-GFP were cultured as tumor organoids for 72 h, reaching a diameter of 600 μm. Tumor organoids were treated with compounds 5-7 for an additional 72 h to determine the effective concentration 50 percent (EC50) for modulating promoter activity. Changes in promoter expression was quantified using a 3D confocal image […] based high-content analysis algorithm (FIG. 2A-2B). [Zhou et al., 2016; Abraham et al., 2019]
Stable VimPro-GFP or EcadPro-RFP SW620 reporter cells were generated using pCDH imPro-GFP-EF1-puro virus or pCDH-EcadPro-mCherry-EF1-puro virus as previously reported. [Zhou et al., 2016; Abraham et al., 2019] The stable fluorescently labeled reporter cells were used to generate tumor organoids as described herein. Tumor organoids were treated with CHD1L inhibitors at 10 μM for an additional 72 h. Following treatment, tumor organoids were stained with 16 μM of Hoechst 33342 for 1 h (nuclei stain). Images were taken with a 5× air objective. Z-stacks were set at 26.5 μm apart for a total of 15 optical slices. Imaging and high-content analysis were performed using an Opera Phenix™ and Harmony® software (PerkinElmer, Hopkinton, Mass.). Nuclei were identified within each layer and cells were found with either GFP or mCherry channel. The fluorescence intensities of each channel were calculated and thresholds were set based on the background intensities. Percentages of GFP or mCherry RFP positive cells were calculated and normalized to the DMSO treated group.
3D High-Content Imaging and Analysis of EMT Dual-Reporter Activity. Tumor organoids were imaged using the Opera Phenix high-content screening system (PerkinElmer) in confocal mode utilizing a 10× air objective (NA 0.3). […] Organoids were also imaged in Brightfield to segment and perform high-content analysis of dual reporter specific fluorescence intensity. […] Both fluorescent signals were quantified and normalized as previously described. […]

[7] = HCT-116, single agent, Table 4A, read-out: Tumor Organoid Cytotoxicity IC50 (μM) HCT116

Cc1cc(Nc2ccc(NC(=O)Cc3cccs3)cc2)nc(N2CCCC2)n1 [Compound 6, N-(4-((6-methyl-2-(pyrrolidin-1-yl)pyrimidin-4-yl)amino)phenyl)-2-(thiophen-2-yl)acetamide]
LOEWE Synergy Score ([1]; SN38 0.64 nM): −5
LOEWE Synergy Score ([1]; SN38 16 nM): 35
LOEWE Synergy Score ([1]; SN38 80 nM): 45
LOEWE Synergy Score ([1]; SN38 400 nM): 41
LOEWE Synergy Score ([1]; SN38 2000 nM): 28
LOEWE Synergy Score ([1]; SN38 10000 nM): 16
LOEWE Synergy Score ([1]; SN38 […]): 36
synergism with irinotecan (and SN38), in words ([1]; killing SW620 tumor organoids): synergism
IC50 [2, 7]: 4.93 µM
tumor volume, combination with irinotecan ([3]; compound 6 5 mg/kg i.p. 2×/day + irinotecan 60 mg/kg i.p. 1×/week, 28 days, vs single agents or control): significantly inhibit colon SW620 tumor xenografts to almost no tumor volume
tumor volume after the last treatment, combination with irinotecan ([3]; compound 6 + irinotecan vs irinotecan alone, last treatment day 28): significantly inhibits colon SW620 tumors to almost no tumor volume beyond the last treatment
survival of tumor-bearing mice, combination with irinotecan ([3]; compound 6 + irinotecan, compared to vehicle and single agents): significantly increases the survival
survival of tumor-bearing mice, compound alone ([3]; compound 6 alone, compared to vehicle): significantly increases the survival
half-life ([4]; Microsomal Half-life (min), female CD-1 mouse microsomes): 17 min
half-life ([4]; half-life in liver microsomes): < 20 min
E-cadherin cleavage (marker of apoptosis) [5]: E-cadherin is cleaved
cleaved PARP1, cleaved caspase 8 and cleaved caspase 3 ([5]; relative to DMSO control): increases in cleaved PARP1, cleaved caspase 8, and cleaved caspase 3

Cc1cc(Nc2ccc(NC(=O)c3c[nH]c4ccccc34)cc2)nc(N2CCCC2)n1 [Compound 6.3, N-(4-((6-methyl-2-(pyrrolidin-1-yl)pyrimidin-4-yl)amino)phenyl)-1H-indole-3-carboxamide]
LOEWE Synergy Score ([1]; SN38 0.64 nM): 4
LOEWE Synergy Score ([1]; SN38 16 nM): 36
LOEWE Synergy Score ([1]; SN38 80 nM): 54
LOEWE Synergy Score ([1]; SN38 400 nM): 48
LOEWE Synergy Score ([1]; SN38 2000 nM): 35
LOEWE Synergy Score ([1]; SN38 10000 nM): 25
LOEWE Synergy Score ([1]; SN38 […]): 31
potency of SN38 combination relative to SN38 alone ([1]; killing SW620 tumor organoids): 150 fold
synergism with irinotecan (and SN38), in words ([1]; killing SW620 tumor organoids): synergism
IC50 ([2]; HCT-116, 72 h, Table 6, read-out: 3 D Cytotoxicity 72 hr IC50 (μM) HCT116): 3.7 µM
IC50 [2, 7]: 3.72 µM
downregulation of vimentin promoter activity (VimPro-GFP), in words ([6]; SW620 or HCT116 tumor organoids): downregulation of vimentin
half-life at 10 μM ([4]; pH 7.4, in vitro liver microsome half-life, second series, different liver microsome preparation): 98 min

COc1ccc(-c2nc(S(=O)(=O)c3ccccc3)c(S(C)(=O)=O)o2)cc1 [Compound 5]
EC50 ([6]; Homo sapiens, SW-620, read-out: EC50 downregulation of vimentin promoter activity, SW620 tumor organoids): 15.6 ± 1.7 µM
E-cadherin cleavage (marker of apoptosis) [5]: E-cadherin is cleaved

Reference: US20230103444A1 (The Regents of the University of Colorado, a Body Corporate, priority 2020, published 2023)
